Data reported in ChEMBL document CHEMBL4418308, “cGAS ANTAGONIST COMPOUNDS” (2017).

The compounds below were run against Cyclic GMP-AMP synthase (Homo sapiens, UniProt Q8N884) (assay: Inhibition of recombinant His6-SUMO tagged human CGAS expressed in Escherichia coli BL21/pLys cells incubated for 20 mins by Kinase Glo chemiluminescence assay).
Sequence of Cyclic GMP-AMP synthase (Q8N884 whole entry): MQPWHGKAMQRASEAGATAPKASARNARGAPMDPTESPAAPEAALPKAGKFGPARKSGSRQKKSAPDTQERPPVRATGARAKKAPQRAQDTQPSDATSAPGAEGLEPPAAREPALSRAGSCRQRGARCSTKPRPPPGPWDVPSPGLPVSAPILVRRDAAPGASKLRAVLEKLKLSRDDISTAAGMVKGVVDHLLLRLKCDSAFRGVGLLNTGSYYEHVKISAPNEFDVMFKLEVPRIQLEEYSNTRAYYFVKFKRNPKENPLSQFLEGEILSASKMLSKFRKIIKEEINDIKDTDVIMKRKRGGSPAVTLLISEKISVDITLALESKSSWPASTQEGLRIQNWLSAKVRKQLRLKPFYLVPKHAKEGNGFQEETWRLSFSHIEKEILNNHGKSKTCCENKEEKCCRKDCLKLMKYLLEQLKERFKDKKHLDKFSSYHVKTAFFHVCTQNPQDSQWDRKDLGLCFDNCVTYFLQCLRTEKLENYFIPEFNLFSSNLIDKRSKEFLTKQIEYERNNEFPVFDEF

Compound	IC50 [µM]
COc1cc(/C(Br)=C2\SC(=O)N(C)C2=O)c(Br)cc1O	≥ 10
COc1cc(/C=C2\SC(=O)N(C)C2=O)c(Br)cc1NS(C)(=O)=O	≥ 10
CCC(Oc1cc(/C=C2\SC(=O)N(C)C2=O)c(Br)c(F)c1O)c1cnc(Cl)nc1 (stereo not given)	0.5 to 10
COc1cccc(Oc2cc(/C=C3\SC(=O)N(C)C3=O)c(Br)cc2O)c1N	≥ 10
CN1C(=O)S/C(=C\c2cc(OCc3cncc(NCc4ccccn4)c3)c(O)cc2Br)C1=O	≥ 10
CN1C(=O)S/C(=C\c2cc(OCc3cnc(Nc4ccccc4)nc3)c(O)cc2Br)C1=O	≥ 10
CN1C(=O)S/C(=C\c2cc(OCc3ccccc3)c(O)cc2Br)C1=O	≥ 10
O=C1/C(=C/c2cc3oc(=O)[nH]c3cc2Br)Sc2ncccc21	≥ 10
CN1C(=O)S/C(=C\c2cc(OCc3cnc(Nc4ccccn4)nc3)c(O)cc2Br)C1=O	≥ 10
CC(Oc1cc(CC2Sc3ncccc3C2=O)c(Br)c(F)c1O)c1cnc(Cl)nc1 (stereo not given)	≥ 10
COc1cc(/C=C2\SC(=O)N(C)C2=O)c(Br)cc1NS(=O)(=O)c1ccccc1	≥ 10
CN1CCC(COc2cc(/C=C3\SC(=O)N(C)C3=O)c(Br)cc2O)CC1	≥ 10
COc1cc(/C=C2\Sc3ncccc3C2=O)c(Br)c(Cl)c1O	≤ 0.5
Cc1cnccc1/C=C1\SC(=O)NC1=O	≤ 0.5
COc1cc(/C=c2\sc3n(c2=O)CCN=3)c(Cl)cc1O	≥ 10
COc1ncc(COc2cc(/C=C3\SC(=O)N(C)C3=O)c(Br)cc2O)cn1	0.5 to 10
CN1C(=O)S/C(=C\c2cc(C(F)(F)F)c(O)cc2Br)C1=O	≤ 0.5
CN1C(=O)S/C(=C\c2cc(OCc3cnc(-c4ccccn4)nc3)c(O)cc2Br)C1=O	0.5 to 10
CC(Oc1cc(/C=C2\SC(=O)N(C)C2=O)c(Br)cc1O)c1cnc(N)nc1 (stereo not given)	≤ 0.5
CNc1ncc(C(C)Oc2cc(/C=C3\SC(=O)N(C)C3=O)c(Br)c(F)c2O)cn1 (stereo not given)	≥ 10
CC(Oc1cc(/C=C2\Sc3ncccc3C2=O)c(Br)cc1O)c1cnc(Cl)nc1 (stereo not given)	≤ 0.5
O=C1NC(=O)/C(=C/c2cccnc2)S1	≥ 10
COc1cc(/C=C2\SC(=O)N(C)C2=O)c(C)cc1O	0.5 to 10
COc1cc(/C=C2\SC(=O)N(C)C2=O)c(C(F)(F)F)cc1O	≥ 10
CN1C(=O)S/C(=C\c2cc(CCc3cnc(N)nc3)c(O)cc2Br)C1=O	0.5 to 10
CN1C(=O)S/C(=C\c2cc(Oc3cccc4cnccc34)c(O)cc2Br)C1=O	≥ 10
CN1C(=O)S/C(=C\c2cc(OCc3cnc(NC(=O)c4ccncc4)nc3)c(O)cc2Br)C1=O	≤ 0.5

Compound	IC50 [µM]
CC(Oc1cc(/C=C2\Sc3ncccc3C2=O)c(Br)cc1O)c1cccnc1 (stereo not given)	0.5 to 10
CN1C(=O)S/C(=C\c2cc(OCc3cnc([S+](C)[O-])nc3Cl)c(O)cc2Br)C1=O (stereo not given)	≥ 10
Nc1ncc(COc2cc(/C=C3\Sc4ncccc4C3=O)c(Br)cc2O)c(C(F)(F)F)n1	≤ 0.5
O=C1/C(=C/c2cc3nn[nH]c3cc2Br)Sc2ncccc21	≤ 0.5
COCCNc1ncc(C(C)Oc2cc(/C=C3\SC(=O)N(C)C3=O)c(Br)cc2O)cn1 (stereo not given)	0.5 to 10
CN1C(=O)S/C(=C\c2cc(OCc3cn(-c4ccccc4)nn3)c(O)cc2Br)C1=O	≥ 10
CC(Oc1cc(/C=C2\SC(=O)N(C)C2=O)c(Br)cc1O)c1cnc(Cl)nc1 (stereo not given)	≥ 10
CN1C(=O)S/C(=C\c2cc(O)c(O)cc2F)C1=O	≥ 10
CN1C(=O)S/C(=C\c2cc3oc(=O)[nH]c3cc2Br)C1=O	≥ 10
COc1cc(/C=C2\SC(=O)N(C)C2=O)c(Br)cc1Oc1cnc(NCc2cccnc2)s1	≥ 10
CN1C(=O)S/C(=C\c2cc(OCc3ccc(=O)[nH]c3)c(O)cc2Br)C1=O	0.5 to 10
COc1cc(/C=C2\SC(=O)N(C)C2=O)c(C#N)cc1O	≥ 10
COc1cc(/C=C2\SC(=O)N(C)C2=O)c(Br)cc1Oc1nncs1	≥ 10
CN1C(=O)S/C(=C\c2cc(Oc3ccc(=O)[nH]c3)c(O)cc2Br)C1=O	0.5 to 10
COc1cc(/C=C2\SC(=O)N(C)C2=O)c(Br)cc1Oc1cnc(NCc2ccncc2)s1	≥ 10
CN1C(=O)S/C(=C\c2cc(Oc3cccc4ncccc34)c(O)cc2Br)C1=O	≥ 10
CN1C(=O)S/C(=C\c2cc(Oc3cccc4c3COCC4)c(O)cc2Br)C1=O	≥ 10
CC(=O)c1cc(/C=C2\SC(=O)N(C)C2=O)c(Br)cc1Oc1cnc(N)s1	≥ 10
CN1C(=O)S/C(=C\c2cc(OCc3ccn(-c4ccccc4)c(=O)c3)c(O)cc2Br)C1=O	≥ 10
CN1C(=O)S/C(=C\c2cc(Oc3ccccc3)c(O)cc2Br)C1=O	≥ 10
CN1C(=O)S/C(=C\c2cc(OCc3cnc(NC(=O)c4ccncc4)nc3)c(O)c(F)c2Br)C1=O	≤ 0.5
O=C1/C(=C/c2cc(OCc3cnc(NCc4ccccn4)nc3)c(O)cc2Br)Sc2ncccc21	≤ 0.5
COc1cc(/C=C2\Sc3ncccc3C2=O)c(Br)cc1Oc1cnc(N)s1	≥ 10
CN1C(=O)S/C(=C\c2cc(Oc3cnc(N)s3)c(O)c(F)c2Br)C1=O	0.5 to 10
CN1C(=O)S/C(=C\c2ccc(O)cc2Br)C1=O	≥ 10
CC(=O)c1cc(/C=C2\SC(=O)N(C)C2=O)c(Br)cc1O	≥ 10
CN1C(=O)S/C(=C\c2cc(CCc3ccc([S+](C)[O-])cc3)c(O)cc2Br)C1=O (stereo not given)	≥ 10

Compound	IC50 [µM]
CN1CCC(c2ncc(COc3cc(/C=C4\SC(=O)N(C)C4=O)c(Br)cc3O)cn2)CC1	≥ 10
CN1C(=O)S/C(=C\c2cc3c(Cc4cnc(N)nc4)c[nH]c3cc2Br)C1=O	≥ 10
CC(C)CNc1ncc(COc2cc(/C=C3\SC(=O)N(C)C3=O)c(Br)cc2O)cn1	≥ 10
CN1C(=O)S/C(=C\c2cc(OCc3cnc(N4CCCCC4)nc3)c(O)cc2Br)C1=O	≥ 10
CN1C(=O)S/C(=C\c2cc(Oc3ccnc(N)c3)c(O)cc2Br)C1=O	≥ 10
COc1cc(/C=C2\SC(=O)N(C)C2=O)c(F)cc1O	≥ 10
O=C1/C(=C/c2ccc(O)cc2Br)Sc2ncccc21	≤ 0.5
CN1C(=O)S/C(=C\c2cc(OCc3cncc(NC(=O)c4ccncc4)c3)c(O)cc2Br)C1=O	≥ 10
COc1cc(/C=C2\Sc3ncccc3C2=O)c(C)cc1O	0.5 to 10
COc1cc(/C=C/C=C2\SC(=O)N(C)C2=O)c(Br)cc1O	≥ 10
CN1C(=O)S/C(=C\c2cc(OCc3ccc(NC(=O)c4cccnc4)nc3)c(O)cc2Br)C1=O	0.5 to 10
CN1C(=O)S/C(=C\c2cc(OCc3cncc(N)c3)c(O)cc2Br)C1=O	≥ 10
CCc1cc(/C=C2\Sc3ncccc3C2=O)c(Br)cc1O	≤ 0.5
COc1cc(/C=C2\SC(=O)N(C)C2=O)c(Br)cc1Oc1ccncc1	≥ 10
COc1cc(/C=C2\Sc3ncncc3C2=O)c(Br)cc1O	0.5 to 10
CN1C(=O)S/C(=C\c2cc(OCc3cnc(NCc4ccccc4)nc3)c(O)cc2Br)C1=O	≥ 10
COc1cc(/C=C2\Sc3ncccc3C2=O)c(Br)c(Br)c1O	≥ 10
O=C1NC(=O)/C(=C/c2ccncc2C(F)(F)F)S1	≥ 10
CSc1ncncc1C(=O)C(C)Oc1cc(/C=C2\SC(=O)N(C)C2=O)c(Br)c(F)c1O (stereo not given)	≥ 10
COc1nc(SC)ncc1COc1cc(/C=C2\SC(=O)N(C)C2=O)c(Br)cc1O	≥ 10
CN1C(=O)S/C(=C\c2cc(OCc3cnc(N)nc3C3CC3)c(O)c(F)c2Br)C1=O	0.5 to 10
CN1C(=O)S/C(=C\c2cc(C(C)(F)F)c(O)cc2Br)C1=O	≥ 10
CN1C(=O)S/C(=C\c2cc(OCc3cnc(-c4ccccc4)nc3)c(O)cc2Br)C1=O	≥ 10
CN1C(=O)S/C(=C\c2cc(OCc3cnc(C4CC4)nc3)c(O)cc2Br)C1=O	≥ 10
C/C(=C1/SC(=O)NC1=O)c1ccncc1	≤ 0.5
COc1cc(/C=c2\sc3n(c2=O)CCCN=3)c(Cl)cc1O	≥ 10
CC(Oc1cc(/C=C2\SC(=O)N(C)C2=O)c(Br)cc1O)c1cnc(NCCO)nc1 (stereo not given)	0.5 to 10

Compound	IC50 [µM]
O=C1NC(=O)/C(=C/c2cnccn2)S1	≥ 10
Cc1nc([S+](C)[O-])nc(C)c1COc1cc(/C=C2\SC(=O)N(C)C2=O)c(Br)cc1O (stereo not given)	≥ 10
CSc1cc(/C=C2\SC(=O)N(C)C2=O)c(Br)cc1O	0.5 to 10
CN1C(=O)S/C(=C\c2cc(OCc3cncc4ccccc34)c(O)cc2Br)C1=O	≥ 10
CN1C(=O)S/C(=C\c2cc(Oc3ccc(-c4ccncc4)cc3)c(O)cc2Br)C1=O	≥ 10
CN1C(=O)S/C(=C\c2cc(OCc3cnc(-n4ccnc4)nc3)c(O)cc2Br)C1=O	0.5 to 10
CSc1nc([S+](C)[O-])ncc1COc1cc(/C=C2\Sc3ncccc3C2=O)c(Br)c(F)c1O (stereo not given)	≤ 0.5
O=C1/C(=C/c2cc(C(F)(F)F)c(O)cc2Br)Sc2ncccc21	≤ 0.5
COc1cc(/C=C2\SC(=O)N(C)C2=S)c(Br)cc1O	≤ 0.5
O=C1NC(=O)/C(=C/c2c[nH]cn2)S1	≥ 10
CN1C(=O)S/C(=C\c2cc(OCc3cnc(C4CCNCC4)nc3)c(O)cc2Br)C1=O	0.5 to 10
O=C1NC(=O)/C(=C/c2cncnc2)S1	≥ 10
CN1C(=O)S/C(=C\c2cc(OCc3ccc(NC(=O)c4ccccn4)nc3)c(O)cc2Br)C1=O	≥ 10
COc1cc(/C=C2\SC(=O)N(C)C2=O)c(Br)cc1Oc1ccnc2ccccc12	≥ 10
CN1C(=O)S/C(=C\c2cc(OCc3ccc(NC(=O)c4ccncc4)nc3)c(O)cc2Br)C1=O	≤ 0.5
CN1C(=O)S/C(=C\c2cc(OCc3cnc(-c4cccnc4)nc3)c(O)cc2Br)C1=O	≥ 10
CN1C(=O)S/C(=C\c2cc(OCC3CCN(C(=O)c4ccncc4)CC3)c(O)cc2Br)C1=O	≥ 10
CSc1ncc(COc2cc(/C=C3\SC(=O)N(C)C3=O)c(Br)cc2O)cn1	≥ 10
CN1C(=O)S/C(=C\c2cc(Oc3ccc([N+](=O)[O-])nc3)c(O)cc2Br)C1=O	≥ 10
CN1C(=O)S/C(=C\c2cc(OCCc3cnc(N)nc3N)c(O)c(F)c2Br)C1=O	≤ 0.5
CN1C(=O)S/C(=C\c2cc(OCc3cnc(N(C)C)nc3)c(O)cc2Br)C1=O	≥ 10
N=C1NC(=O)/C(=C/c2ccncc2)S1	≥ 10
CN1C(=O)S/C(=C\c2cc(OCC3CCN(C(=O)c4ccccn4)CC3)c(O)cc2Br)C1=O	≥ 10
COc1nc([S+](C)[O-])ncc1COc1cc(/C=C2\SC(=O)N(C)C2=O)c(Br)cc1O (stereo not given)	≥ 10
